The values below come from patent publication US20140056835A1, “COSMETIC COMPOSITION FOR SKIN WHITENING COMPRISING SMALL MOLECULE-PEPTIDE CONJUGATE” (AE KYUNG INDUSTRIAL CO., LTD., priority 2012, published 2014).

Series [1] addresses T1, Tyrosinase (Agaricus bisporus, UniProt C7FF04).
T1 construct: purchased Sigma; host or cells: natural source: mushrooms
Put plainly: Test for inhibitory effect on tyrosinase activity (dopachrome absorbance at 475 nm). It is filed as biochemical, mushrooms. Particulars: L-tyrosine substrate, 10 min at 37° C.; for inhibition at 100 µM / inhibition at 50 µM: read-out: Tyrosinase activity inhibition rate (%).

The subject of series [2] is skin. To be noted: in vivo.
For series [3], the system named is B16F1 melanoma cells. Briefly: Test for inhibitory effect on melanin production. In kind it is cell-based. Particulars: sample 50 uM, incubated for 2 days; for inhibition at 50 µM: Mus musculus, B16-F1, 48 h, read-out: Melanin production inhibition rate (%). The procedure: Inhibitory effect on melanin formation was measured using B16F1 melanoma cells. B16F1 melanoma cells were inoculated into a 6-well plate at a density of 3×10^5 (cells/well) with DMEM containing 10% FBS. […] After 2 days, the medium was removed and the cells were washed with PBS (phosphate buffered saline), treated with trypsin, and then retrieved. The retrieved cells were centrifuged and the supernatant was discarded. Intracellular melanin was obtained by treating the cells with 0.2 ml of 1N NaOH+10% DMSO solution. The collected cells were transferred to a 96-well plate and absorbance was measured at 490 nm. The amount of intracellular melanin was estimated using standard curve with synthetic melanin as a standard substance. The amount of protein was quantified via absorbance measurement using a protein assay reagent. For the amount of melanin produced, the amount of melanin for a given protein was estimated.

T1 sequence (C7FF04 1-392 limits assumed): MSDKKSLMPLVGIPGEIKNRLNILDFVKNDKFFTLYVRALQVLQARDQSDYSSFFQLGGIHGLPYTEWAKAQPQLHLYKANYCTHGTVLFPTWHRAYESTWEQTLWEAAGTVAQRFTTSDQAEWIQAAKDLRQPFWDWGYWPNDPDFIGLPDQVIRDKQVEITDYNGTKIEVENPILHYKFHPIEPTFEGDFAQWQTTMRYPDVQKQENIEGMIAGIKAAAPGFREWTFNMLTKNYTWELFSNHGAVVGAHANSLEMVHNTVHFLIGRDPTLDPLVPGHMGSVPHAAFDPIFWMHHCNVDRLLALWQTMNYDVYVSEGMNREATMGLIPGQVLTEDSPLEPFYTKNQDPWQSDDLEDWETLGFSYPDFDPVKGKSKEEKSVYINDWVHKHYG

For `CC(C)C[C@H](NC(=O)/C=C/c1ccc(O)cc1)C(=O)NCC(N)=O` [Coumaric acid-LG-NH2, Coumaric acid-Leu-Gly-NH2], in series [1] (sample 50 uM), the “Tyrosinase activity inhibition rate (%)” value stood at 25.1%. The “Tyrosinase activity inhibition rate (%)” value in series [1] (sample 100 uM) stood at 34.8%. In series [2], the Degree of irritation result is given as “None” and the “Skin irritation” value is given as “no irritation”. Further, the “Melanin production inhibition rate (%)” value in series [3] was 45.3%.

One may read the inhibition as the share of the control response that was lost under treatment. Take `O=C(O)/C=C/c1ccc(O)c(O)c1` [Caffeic acid]: in series [1] (sample 100 uM), the inhibition at 100 µM was determined as 21.3%. Further, the inhibition at 50 µM in series [3] came to 16%.

As to `O=C(O)/C=C/c1ccc(O)cc1` [Coumaric acid], the inhibition at 50 µM in series [1] (sample 50 uM) came to 21.3%; in series [3] it was 23%. Also, in series [1] (sample 100 uM), the inhibition at 100 µM amounted to 24.6%.

For `CC(C)C[C@H](NC(=O)/C=C/c1ccc(O)c(O)c1)C(=O)NCC(N)=O` [Caffeic acid-LG-NH2, Caffeic acid-Leu-Gly-NH2], the “Tyrosinase activity inhibition rate (%)” value in series [1] (sample 50 uM) was 24.2%. The “Tyrosinase activity inhibition rate (%)” value in series [1] (sample 100 uM) came out at 26.8%. In series [2], the Degree of irritation entry is recorded as “None” and the “Skin irritation” value is “no irritation”. Also, in series [3], the “Melanin production inhibition rate (%)” value is 41%.

With `OC[C@H]1O[C@@H](Oc2ccc(O)cc2)[C@H](O)[C@@H](O)[C@@H]1O` [Arbutin], the inhibition at 50 µM in series [1] (sample 50 uM) is 9.2%; in series [3] it was 18%. Besides, the inhibition at 100 µM in series [1] (sample 100 uM) turned out to be 14.4%.
